Experimental data published in US20170145472A1, “METHOD OF DETECTING HELICASE ACTIVITY” (University of Macau, priority 2015, published 2017).

Legend:
F10T dsDNA = test: FRET melting assay, duplex; format: binding; settings: F10T 0.2 μM, complex 9 5 μM
Experimental: (§1) The ability of complex 9 to stabilize G-quadruplex DNA was investigated using a fluorescence resonance energy transfer (FRET) melting assay. The labeled G-quadruplex-forming oligonucleotide F21T, consisting of a sequence 5′-FAM-(SEQ ID NO: 5)-TAMRA-3′ (donor fluorophore FAM: 6-carboxyfluorescein; acceptor fluorophore TAMRA: 6-carboxytetramethylrhodamine), was diluted to 200 nM in a potassium cacodylate buffer (100 mM KCl, pH 7.0), and then heated from room temperature to 95° C. in the presence of the indicated concentrations of complex 9. The labeled duplex-forming oligonucleotide F10T, consisting of a sequence 5′-FAM-[…]-HEG-(SEQ ID NO: 6)-3′ (HEG linker: [(—CH2—CH2—O—)6]), was treated in the same manner, except that the buffer was changed to 10 mM lithium cacodylate (pH 7.4). Fluorescence readings were taken at intervals of 0.5° C. in a range of 25 to 95° C.

HCV NS3 helicase = target: T1, HCV NS3 helicase (Hepatitis C virus genotype 1a, UniProt P27958); test: G-quadruplex-based luminescent HCV NS3 helicase activity assay; format: biochemical
T1 construct: upon the addition of 0.8 μM HCV NS3 helicase; purchased Prospec Inc. (Ness-Ziona, Israel)
Experimental: The random-coil oligonucleotides ON1 (100 μM) and ON2 (100 μM) were incubated in Tris buffer (20 mM, pH 7.0). The solution was heated at a temperature of 72-98° C., in particular 95° C., for at least 30 seconds in particular 10 min, cooled to room temperature at 0.1° C./s, and further incubated at room temperature for 1 hour to ensure formation of the duplex substrate. The annealed product was stored at −20° C. before use. For assaying enzyme activity, 50 μL of Tris buffered solution (5 mM Tris-HCl, 5 mM NaCl, 1 mM MgCl2, 1 mM ATP, 0.1 mM DTT, pH 7.9) with the indicated concentrations of helicase or S1, Endo, DpnI, ExoI, EcoRI, RNase, DNase, and SSB were added to a solution containing the duplex substrate (0.25 μM). The mixture was heated to 37° C. for at least 30 minutes, e.g. 2 hours, to allow the indicated enzymes-catalyzed unwinding of the duplex substrate to take place. The duplex unwinding reaction was quenched by the addition of EDTA at a final concentration of 20 mM, and the mixture was subsequently diluted using Tris buffer (20 mM Tris, 20 mM KCl, 150 mM NH4Ac, pH 7.2) to a final volume of 500 μL. […] Emission spectra were recorded in the 500-720 nm range using an excitation wavelength of 360 nm.
For the detection of helicase activity in cell extract, 50 μL of Tris buffered solution (5 mM Tris-HCl, 5 mM NaCl, 1 mM MgCl2, 1 mM ATP, 0.1 mM DTT, pH 7.9) and the indicated concentrations of helicase were added to a solution containing the duplex substrate (0.25 μM) and cell extract. The mixture was heated to 37° C. for at least 30 minutes, e.g. 2 hours, to allow the helicase-catalyzed unwinding of the duplex substrate to take place. The duplex unwinding reaction was quenched by the addition of EDTA at a final concentration of 20 mM, and the mixture was subsequently diluted using Tris buffer (20 mM Tris, 20 mM KCl, 150 mM NH4Ac, pH 7.2) to a final volume of 500 μL. Finally, 1 μM of complex 9 was added to the mixture. Emission spectra were recorded in the 500-720 nm range using an excitation wavelength of 360 nm.

[1] = Photophysical measurement; format: physicochemical
Experimental: Emission spectra and lifetime measurements for complexes were performed on a PTI TimeMaster C720 Spectrometer (Nitrogen laser: pulse output 337 nm) fitted with a 380 nm filter. Error limits were estimated: λ (±1 nm); τ (±10%); φ (±10%). All solvents used for the lifetime measurements were degassed using three cycles of freeze-vac-thaw.
Luminescence quantum yields were determined using the method of Demas and Crosby [Ru(bpy)3][PF6]2 in degassed acetonitrile as a standard reference solution (Φr=0.062) and calculated according to the following equation:
Φs=Φr(Br/Bs)(ns/nr)^2(Ds/Dr) • where the subscripts s and r refer to sample and reference standard solution respectively, n is the refractive index of the solvents, D is the integrated intensity, and Φ is the luminescence quantum yield. The quantity B was calculated by B=1−10^−AL, where A is the absorbance at the excitation wavelength and L is the optical path length.

PS2.M G-quadruplex DNA = test: Luminescence response of Ir(III) complexes towards different forms of DNA; format: binding; settings: complex 1 μM, DNA 5 μM
Source text: M G-quadruplex DNA (G4) over dsDNA (ds17) and ssDNA (CCRS-DEL), in particular IG4/IdsDNA refers to the ratio of the luminescent response of PS2. M G-quadruplex DNA over dsDNA (ds17); and IG4/IssDNA refers to the ratio of the luminescent response of PS2. M G-quadruplex DNA over ssDNA(CCR5-DEL).
M G-quadruplex DNA over dsDNA (ds17) and ssDNA (CCRS-DEL), in particular IG4/IdsDNA refers to the ratio of the luminescent response of PS2. M G-quadruplex DNA over dsDNA (ds17); and IG4/IssDNA refers to the ratio of the luminescent response of PS2. M G-quadruplex DNA over ssDNA(CCR5-DEL).
The G-quadruplex DNA-forming sequence (PS2. M) was annealed in Tris-HCl buffer (20 mM Tris, 100 mM KCl, pH 7.0) and were stored at −20° C. or less than −20° C. before use. Complex 1-17 (1 μM) was added to 5 μM of ssDNA, dsDNA or PS2. M G-quadruplex DNA in Tris-HCl buffer (20 mM Tris, pH 7.0).

helicase = target: T2, helicase (Hepatitis C virus genotype 1a, UniProt P27958); test: Luminescence response of complexes towards helicase alone
T2 construct: upon the addition of 0.8 μM HCV NS3 helicase; purchased Prospec Inc. (Ness-Ziona, Israel)
Source text: M G-quadruplex DNA over helicase, IG4/Ihelicase refers to the ratio of the lunminscent response of PS2. M G-quadruplex DNA over helicase.

Pu27 G-quadruplex DNA = test: G-quadruplex fluorescent intercalator displacement (G4-FID) assay; format: binding
Experimental: The FID assay was performed as described. The Pu27 G-quadruplex DNA (0.25 μM) in Tris-HCl buffer (20 mM Tris, 100 mM KCl, pH 7.0) were annealed by heating at a temperature of 72-98° C., in particular 95° C., for at least 10 min. Indicated concentration of thiazole orange (0.5 μM for Pu27 G-quadruplex DNA and 0.5 μM for ds17) was added and the mixture was incubated for at least 30 minutes, in particular 1 hour. Emission measurement was taken after addition of each indicated concentration of complex 9 followed by an equilibration time for 5 minutes. The fluorescence area was converted into percentage of displacement (PD) by using the following equation. PD=100−[(FA/FA0)×100] (FA0=fluorescence area of DNA-TO complex in the absence of complex 9; FA=fluorescence area in the presence of complex 9).

F21T G-quadruplex DNA = test: FRET melting assay, G-quadruplex; format: binding; settings: F21T 0.2 μM, complex 9 5 μM
Experimental: as §1

T1 sequence (P27958 1027-1657): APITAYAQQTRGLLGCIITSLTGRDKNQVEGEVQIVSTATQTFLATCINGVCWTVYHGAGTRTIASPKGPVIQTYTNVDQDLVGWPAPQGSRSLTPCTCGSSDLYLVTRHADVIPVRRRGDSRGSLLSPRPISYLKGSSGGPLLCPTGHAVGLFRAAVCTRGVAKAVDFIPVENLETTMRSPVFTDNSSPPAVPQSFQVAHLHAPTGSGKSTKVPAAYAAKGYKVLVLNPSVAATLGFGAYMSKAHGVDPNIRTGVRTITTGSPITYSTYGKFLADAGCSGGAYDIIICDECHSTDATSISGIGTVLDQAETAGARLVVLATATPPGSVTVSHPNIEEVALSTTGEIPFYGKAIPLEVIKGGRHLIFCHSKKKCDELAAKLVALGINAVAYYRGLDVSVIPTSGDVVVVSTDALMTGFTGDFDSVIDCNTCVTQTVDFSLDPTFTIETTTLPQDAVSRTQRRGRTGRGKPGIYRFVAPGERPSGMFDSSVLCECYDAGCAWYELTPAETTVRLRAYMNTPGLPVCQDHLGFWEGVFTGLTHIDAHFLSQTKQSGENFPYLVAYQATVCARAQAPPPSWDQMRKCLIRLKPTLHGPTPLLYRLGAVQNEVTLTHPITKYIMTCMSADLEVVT
T2 sequence (P27958 1027-1657): as above

In the case of `F[P-](F)(F)(F)(F)F.[Ir+3].[c-]1ccccc1-c1ccc2ccccc2n1.[c-]1ccccc1-c1ccc2ccccc2n1.c1cnc2c(c1)ccc1cccnc12` [Complex 9], the “change in the melting temperature of F10T dsDNA” value (F10T dsDNA) is reported as 4 °C, the “luminescence of complex 9 upon incubation with helicase and the ON1-ON2 duplex substrate” value (HCV NS3 helicase; ON1-ON2 duplex substrate, K+) is reported as “significantly enhanced” and the “luminescence of complex 9 in response to helicase for the mutant DNA sequences” value (HCV NS3 helicase; ON1m/ON2 duplex mutant 0.25 μM, helicase 0.9 μM, complex 9 1 μM) is reported as “slight decrease”. For the same compound, the “enhancement in luminescence of the system” value (HCV NS3 helicase; helicase concentration 0.9 μM) was “ca. 4.5 fold”, the “luminescence intensity of the system with increasing helicase in cell extract” value (HCV NS3 helicase; reaction system containing 0.5% (v/v) cell extract) was “gradual increase in luminescence intensity” and the “detection limit of the assay for helicase” value (HCV NS3 helicase; signal-to-noise ratio (S/N) of 3) was 0.09 µM. For the same compound, the Lifetime [1] was 8.13 μs, the λem [1] was 570 nm and the Quantum yield ([1]; reference [Ru(bpy)3][PF6]2 in degassed acetonitrile) was 0.12. The “luminescence response in the presence of the PS2.M G-quadruplex” value (PS2.M G-quadruplex DNA) was “significantly enhanced luminescence response”, the “change in luminescence intensity of the complex 9+G-quadruplex ensemble upon addition of helicase” value (helicase; 0.8 μM HCV NS3 helicase) was “no significant change” and the “luminescence enhancement in the presence of helicase only” value (helicase; helicase alone, no DNA) was “no luminescence enhancement in the presence of helicase”. The “G4DC50, half-maximal concentration of compound required to displace 50% TO from DNA” value (Pu27 G-quadruplex DNA; Pu27 G-quadruplex DNA 0.25 μM, thiazole orange 0.5 μM, Tris-HCl buffer) was “ca. 5 μM”, the “displacement of thiazole orange from G-quadruplex DNA compared with duplex DNA” value (Pu27 G-quadruplex DNA; Pu27 G-quadruplex vs ds17 duplex) was “higher efficacy than from duplex DNA” and the “increase of melting temperature (ΔTm) of F21T G-quadruplex” value (F21T G-quadruplex DNA) was “about 13 °C”.
